Reference: patent publication US7700782B2, “Compounds 569” (AstraZeneca AB, priority 2007, dated 2010)
Where a name gives a salt, the structure may show the parent alone.

These compounds were tested against T1, Adrenergic β2 (Homo sapiens, UniProt P07550) (assay: Adrenergic β2 mediated cAMP production in H292 cells (AlphaScreen cAMP detection)). Settings: Intrinsic Activity, fraction relative to the maximum activity determined for formoterol.
T1 construct: Adherent H292 cells were removed from tissue culture flasks; endogenous in cells; host or cells: H292 cells
T1 sequence (P07550 whole entry): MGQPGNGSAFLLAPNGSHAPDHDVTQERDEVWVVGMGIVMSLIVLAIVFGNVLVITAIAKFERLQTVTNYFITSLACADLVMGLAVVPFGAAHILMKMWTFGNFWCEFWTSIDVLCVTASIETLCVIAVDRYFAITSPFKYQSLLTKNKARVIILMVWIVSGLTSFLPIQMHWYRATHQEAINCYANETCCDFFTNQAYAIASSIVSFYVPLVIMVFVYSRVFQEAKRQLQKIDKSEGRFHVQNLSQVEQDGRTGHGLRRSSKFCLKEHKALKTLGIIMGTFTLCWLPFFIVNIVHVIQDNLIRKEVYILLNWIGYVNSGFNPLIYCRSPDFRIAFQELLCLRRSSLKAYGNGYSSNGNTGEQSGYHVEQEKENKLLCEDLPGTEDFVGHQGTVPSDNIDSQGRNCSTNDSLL
Type: cell-based
Experimental: Adrenergic β2 Mediated cAMP Production
H292 cells were grown in 225 cm2 flasks incubator at 37° C., 5% CO2 in RPMI medium containing, 10% (v/v) FBS (foetal bovine serum) and 2 mM L-glutamine.
Adherent H292 cells were removed from tissue culture flasks by treatment with Accutase™ cell detachment solution for 15 minutes. Flasks were incubated for 15 minutes in a humidified incubator at 37° C., 5% CO2. Detached cells were re-suspended in RPMI media (containing 10% (v/v) FBS and 2 mM L-glutamine) at 0.05×10^6 cells per mL. 5000 cells in 100 μL were added to each well of a tissue-culture-treated 96-well plate and the cells incubated overnight in a humidified incubator at 37° C., 5% CO2. The culture media was removed and cells were washed twice with 100 μL assay buffer and replaced with 50 μL assay buffer (HBSS solution containing 10 mM HEPES pH 7.4 and 5 mM glucose). Cells were rested at room temperature for 20 minutes after which time 25 μL of rolipram (1.2 mM made up in assay buffer containing 2.4% (v/v) dimethylsulphoxide) was added. Cells were incubated with rolipram for 10 minutes after which time test compounds were added and the cells were incubated for 60 minutes at room temperature. The final rolipram concentration in the assay was 300 μM and final vehicle concentration was 1.6% (v/v) dimethylsulphoxide. The reaction was stopped by removing supernatants, washing once with 100 μL assay buffer and replacing with 50 μL lysis buffer. The cell monolayer was frozen at −80° C. for 30 minutes (or overnight).
The concentration of cAMP (cyclic adenosine monophosphate) in the cell lysate was determined using AlphaScreen™ methodology. The frozen cell plate was thawed for 20 minutes on a plate shaker then 10 μL of the cell lysate was transferred to a 96-well white plate. 40 μL of mixed AlphaScreen™ detection beads pre-incubated with biotinylated cAMP, was added to each well and the plate incubated at room temperature for 10 hours in the dark. The AlphaScreen™ signal was measured using an EnVision spectrophotometer (Perkin-Elmer Inc.) with the recommended manufacturer's settings. cAMP concentrations were determined by reference to a calibration curve determined in the same experiment using standard cAMP concentrations. Concentration response curves for agonists were constructed and data was fitted to a four parameter logistic equation to determine both the pEC50 and Intrinsic Activity. Intrinsic Activity was expressed as a fraction relative to the maximum activity determined for formoterol in each experiment.

Compared with CC(C)(CO)CN(CCNCCc1ccc(O)c2[nH]c(=O)sc12)C(=O)CCNCCc1ccc(Cl)cc1 [Example 40, N^3-[2-(4-Chlorophenyl)ethyl]-N-(3-hydroxy-2,2-dimethylpropyl)-N-(2-{[2-(4-hydroxy-2-oxo-2,3-dihydro-1,3-benzothiazol-7-yl)ethyl]amino}ethyl)-β-alaninamide diacetic acid salt], CC(C)(C)CN(CCNCCc1ccc(O)c2[nH]c(=O)sc12)C(=O)CCNCCc1cccc(F)c1 [Example 44, N^1-(2,2-Dimethylpropyl)-N^3-[2-(3-fluorophenyl)ethyl]-N^1-(2-{[2-(4-hydroxy-2-oxo-2,3-dihydro-1,3-benzothiazol-7-yl)ethyl]amino}ethyl)-β-alaninamide bis-trifluoroacetic acid salt] is higher in “β2 Int Act” value: 0.64 for the first, 0.73 for the second.

Going from O=C(CCNCCc1ccccc1)N(CCNCCc1ccc(O)c2[nH]c(=O)sc12)C1Cc2ccccc2C1 [Example 41, N^1-(2,3-Dihydro-1H-inden-2-yl)-N^1-(2-{[2-(4-hydroxy-2-oxo-2,3-dihydro-1,3-benzothiazol-7-yl)ethyl]amino}ethyl)-N^3-(2-phenylethyl)-β-alaninamide bis-trifluoroacetic acid salt] to O=C(CCNCCc1cccc(Cl)c1)N(CCNCCc1ccc(O)c2[nH]c(=O)sc12)C1Cc2ccccc2C1 [Example 42, N^3-[2-(3-Chlorophenyl)ethyl]-N^1-(2,3-dihydro-1H-inden-2-yl)-N^1-(2-{[2-(4-hydroxy-2-oxo-2,3-dihydro-1,3-benzothiazol-7-yl)ethyl]amino}ethyl)-β-alaninamide bis-trifluoroacetic acid salt], the “β2 Int Act” value falls from 0.99 to 0.82.

Compared with COc1cccc(CCNCCC(=O)N(CCNCCc2ccc(O)c3[nH]c(=O)sc23)CC(C)(C)C)c1 [Example 43, N^1-(2,2-Dimethylpropyl)-N^1-(2-{[2-(4-hydroxy-2-oxo-2,3-dihydro-1,3-benzothiazol-7-yl)ethyl]amino}ethyl)-N^3-[2-(3-methoxyphenyl)ethyl]-β-alaninamide bis-trifluoroacetic acid salt], CC(C)(CN(CCNCCc1ccc(O)c2[nH]c(=O)sc12)C(=O)CCNCCc1ccccc1)c1ccccc1 [Example 45, N^1-(2-{[2-(4-Hydroxy-2-oxo-2,3-dihydro-1,3-benzothiazol-7-yl)ethyl]amino}ethyl)-N^1-(2-methyl-2-phenylpropyl)-N^3-(2-phenylethyl)-β-alaninamide bis-trifluoroacetic acid salt] is lower in “β2 Int Act” value: 0.67 for the first, 0.55 for the second.

Going from O=C(CCNCCc1ccccc1Cl)N(CCNCCc1ccc(O)c2[nH]c(=O)sc12)C1CCC(F)(F)CC1 [Example 46, N^3-[2-(2-Chlorophenyl)ethyl]-N^1-(4,4-difluorocyclohexyl)-N^1-(2-{[2-(4-hydroxy-2-oxo-2,3-dihydro-1,3-benzothiazol-7-yl)ethyl]amino}ethyl)-β-alaninamide bis-trifluoroacetic acid salt] to O=C(CCNCCc1cccc(Cl)c1)N(CCNCCc1ccc(O)c2[nH]c(=O)sc12)C1CCC(F)(F)CC1 [Example 47, N^3-[2-(3-Chlorophenyl)ethyl]-N^1-(4,4-difluorocyclohexyl)-N^1-(2-{[2-(4-hydroxy-2-oxo-2,3-dihydro-1,3-benzothiazol-7-yl)ethyl]amino}ethyl)-β-alaninamide bis-trifluoroacetic acid salt], the “β2 Int Act” value falls from 0.78 to 0.73.

First: O=C(CCNCCc1ccc(Cl)cc1)N(CCNCCc1ccc(O)c2[nH]c(=O)sc12)C1CCC(F)(F)CC1 [Example 48, N^3-[2-(4-Chlorophenyl)ethyl]-N^1-(4,4-difluorocyclohexyl)-N^1-(2-{[2-(4-hydroxy-2-oxo-2,3-dihydro-1,3-benzothiazol-7-yl)ethyl]amino}ethyl)-β-alaninamide bis-trifluoroacetic acid salt]
Second: O=C(CCNCCc1ccc(Cl)c(Cl)c1)N(CCNCCc1ccc(O)c2[nH]c(=O)sc12)C1CCC(F)(F)CC1 [Example 49, N^3-[2-(3,4-Dichlorophenyl)ethyl]-N^1-(4,4-difluorocyclohexyl)-N^1-(2-{[2-(4-hydroxy-2-oxo-2,3-dihydro-1,3-benzothiazol-7-yl)ethyl]amino}ethyl)-β-alaninamide bis-trifluoroacetic acid salt]
The “β2 Int Act” value of the first is lower: 0.55 for the first, 0.59 for the second.

Going from O=C(CCNCCc1cccc(Cl)c1)N(CCNCCc1ccc(O)c2[nH]c(=O)sc12)C1CCCCCC1 [Example 50, N^3-[2-(3-Chlorophenyl)ethyl]-N^1-cycloheptyl-N^1-(2-{[2-(4-hydroxy-2-oxo-2,3-dihydro-1,3-benzothiazol-7-yl)ethyl]amino}ethyl)-β-alaninamide bis-trifluoroacetic acid salt] to O=C(CCNCCc1ccc(Cl)cc1)N(CCNCCc1ccc(O)c2[nH]c(=O)sc12)C1CCCCCC1 [Example 51, N^3-[2-(4-Chlorophenyl)ethyl]-N^1-cycloheptyl-N^1-(2-{[2-(4-hydroxy-2-oxo-2,3-dihydro-1,3-benzothiazol-7-yl)ethyl]amino}ethyl)-β-alaninamide bis-trifluoroacetic acid salt], the “β2 Int Act” value falls from 0.91 to 0.59.

First: O=C(CCNCCc1cccs1)N(CCNCCc1ccc(O)c2[nH]c(=O)sc12)C1CCCCCC1 [Example 52, N^1-Cycloheptyl-N^1-(2-{[2-(4-hydroxy-2-oxo-2,3-dihydro-1,3-benzothiazol-7-yl)ethyl]amino}ethyl)-N^3-[2-(2-thienyl)ethyl]-β-alaninamide bis-trifluoroacetic acid salt]
Second: O=C(CCNCCc1cccc(F)c1F)N(CCNCCc1ccc(O)c2[nH]c(=O)sc12)C1CCCCCC1 [Example 56, N^1-Cycloheptyl-N^3-[2-(2,3-difluorophenyl)ethyl]-N^1-(2-{[2-(4-hydroxy-2-oxo-2,3-dihydro-1,3-benzothiazol-7-yl)ethyl]amino}ethyl)-β-alaninamide bis-trifluoroacetic acid salt]
The “β2 Int Act” value of the first is higher: 0.92 for the first, 0.86 for the second.

Going from O=C(CCNCCc1ccc(F)c(F)c1)N(CCNCCc1ccc(O)c2[nH]c(=O)sc12)C1CCCCCC1 [Example 53, N^1-Cycloheptyl-N^3-[2-(3,4-difluorophenyl)ethyl]-N^1-(2-{[2-(4-hydroxy-2-oxo-2,3-dihydro-1,3-benzothiazol-7-yl)ethyl]amino}ethyl)-β-alaninamide bis-trifluoroacetic acid salt] to O=C(CCNCCc1ccc(F)cc1F)N(CCNCCc1ccc(O)c2[nH]c(=O)sc12)C1CCCCCC1 [Example 55, N^1-Cycloheptyl-N^3-[2-(2,4-difluorophenyl)ethyl]-N^1-(2-{[2-(4-hydroxy-2-oxo-2,3-dihydro-1,3-benzothiazol-7-yl)ethyl]amino}ethyl)-β-alaninamide bis-trifluoroacetic acid salt], the “β2 Int Act” value rises from 0.74 to 0.81.

With O=C(CCNCCc1cccc(OC(F)F)c1)N(CCNCCc1ccc(O)c2[nH]c(=O)sc12)C1CCCCCC1 [Example 54, N^1-Cycloheptyl-N^3-{2-[3-(difluoromethoxy)phenyl]ethyl}-N^1-(2-{[2-(4-hydroxy-2-oxo-2,3-dihydro-1,3-benzothiazol-7-yl)ethyl]amino}ethyl)-β-alaninamide bis-trifluoroacetic acid salt] the “β2 Int Act” value was 0.69.
